Experimental data published in ChEMBL document CHEMBL1123781, “Synthesis and biological properties of some 6H-pyrido[4,3-b]carbazoles” (1987).

How the values were obtained:
[1] = test system: HeLa; assay: Effect on [3H]-Thymidine incorporation by HeLa cells measured as percent incorporation compared to control 3 hr after washing at a concentration of 5 ug/mL; format: functional, Homo sapiens
[2] = test system: HeLa; assay: Effect on [3H]thymidine incorporation by HeLa cells measured as percent incorporation compared to control in the presence of drug at a concentration of 25 ug/mL; format: functional, Homo sapiens
[3] = test system: HeLa; assay: Effect on [3H]thymidine incorporation by HeLa cells measured as percent incorporation compared to control in the presence of drug at a concentration of 5 ug/mL; format: functional, Homo sapiens
[4] = test system: HeLa; assay: Effect on [3H]thymidine incorporation by HeLa cells measured as percent incorporation compared to control 3 h after washing at a concentration of 25 ug/mL; format: functional, Homo sapiens
[5] = test system: P388; assay: Activity against P388 lymphocytic leukemia in BDFR-1 mice measured as percent increase in lifespan (% ILS) relative to controls after intraperitoneal administration of 10 mg/kg; format: functional; conditions: Mus musculus, P388, ip
[6] = test system: P388; assay: Activity against P388 lymphocytic leukemia in BDFR-1 mice measured as percent increase in lifespan (% ILS) relative to controls after intraperitoneal administration of 20 mg/kg; format: functional; conditions: Mus musculus, P388, ip
[7] = test system: P388; assay: Activity against P388 lymphocytic leukemia in BDFR-1 mice measured as percent increase in lifespan (% ILS) relative to controls after intraperitoneal administration of 40 mg/kg; format: functional; conditions: Mus musculus, P388, ip
[8] = test system: P388; assay: Activity against P388 lymphocytic leukemia in BDFR-1 mice measured as percent increase in lifespan (% ILS) relative to controls after intraperitoneal administration of 5 mg/kg; format: functional; conditions: Mus musculus, P388, ip
[9] = test system: P388; assay: Activity against P388 lymphocytic leukemia in BDFR-1 mice measured as percent increase in lifespan (% ILS) relative to controls after intraperitoneal administration of 80 mg/kg; format: functional; conditions: Mus musculus, P388, ip
[10] = test system: P388; assay: Activity against P388 lymphocytic leukemia in BDFR-1 mice measured as median survival time (MST) after intraperitoneal administration of 10 mg/kg; format: functional, Mus musculus
[11] = test system: P388; assay: Activity against P388 lymphocytic leukemia in BDFR-1 mice measured as median survival time (MST) after intraperitoneal administration of 20 mg/kg; format: functional, Mus musculus
[12] = test system: P388; assay: Activity against P388 lymphocytic leukemia in BDFR-1 mice measured as median survival time (MST) after intraperitoneal administration of 40 mg/kg; format: functional, Mus musculus
[13] = test system: P388; assay: Activity against P388 lymphocytic leukemia in BDFR-1 mice measured as median survival time (MST) after intraperitoneal administration of 5 mg/kg; format: functional, Mus musculus
[14] = test system: P388; assay: Activity against P388 lymphocytic leukemia in BDFR-1 mice measured as median survival time (MST) after intraperitoneal administration of 80 mg/kg; format: functional, Mus musculus
[15] = test system: P388; assay: Activity against P388 lymphocytic leukemia in BDFR-1 mice measured as percent increase in lifespan (% ILS) relative to controls after intraperitoneal administration of 2.5 mg/kg; format: functional; conditions: Mus musculus, P388, ip
[16] = test system: P388; assay: Activity against P388 lymphocytic leukemia in BDFR-1 mice measured as percent increase in lifespan (% ILS) relative to controls after intraperitoneal administration of 80 mg/kg; Toxic; format: functional, organism-based; set-up: dose 80 mg/kg; conditions: Mus musculus, at 80 mg/kg
[17] = test system: P388; assay: Activity against P388 lymphocytic leukemia in BDFR-1 mice measured as median survival time (MST) after intraperitoneal administration of 2.5 mg/kg; format: functional, Mus musculus
[18] = test system: HeLa; assay: Effect on [3H]thymidine incorporation by HeLa cells measured as percent incorporation compared to control 3 h after washing at a concentration of 5 ug/mL; format: functional, Homo sapiens
[19] = test system: HeLa; assay: Effect on [3H]-Thymidine incorporation by HeLa cells measured as percent incorporation compared to control in the presence of drug at a concentration of 10 ug/mL; format: functional, Homo sapiens
[20] = test system: HeLa; assay: Effect on [3H]-Thymidine incorporation by HeLa cells measured as percent incorporation compared to control in the presence of drug at a concentration of 5 ug/mL; format: functional, Homo sapiens
[21] = test system: HeLa; assay: Effect on [3H]-Thymidine incorporation by HeLa cells measured as percent incorporation compared to control 3 hr after washing at a concentration of 10 ug/mL; format: functional, Homo sapiens
[22] = test system: HeLa; assay: Effect on [3H]-Thymidine incorporation by HeLa cells measured as percent incorporation compared to control 3 hr after washing at a concentration of 25 ug/mL; format: functional, Homo sapiens

Cc1c2cnccc2c(CO)c2[nH]c3ccccc3c12
Incorporation [1]: 88% | Incorporation [2]: 22% | Incorporation [3]: 67% | Incorporation [4]: 52% | ILS at 10 mg/kg [5]: 45% | ILS at 20 mg/kg [6]: 65% | ILS at 40 mg/kg [7]: 65% | ILS at 5 mg/kg [8]: 30% | ILS at 80 mg/kg [9]: 80% | MST [10]: 14.5 | MST [11]: 16.5 | MST [12]: 16.5 | MST [13]: 13 | MST [14]: 18

CNC(=O)OCc1c2ccncc2c(C)c2c1[nH]c1ccccc12
Incorporation [1]: 18% | Incorporation [2]: 27% | Incorporation [3]: 59% | Incorporation [4]: 3% | ILS at 10 mg/kg [5]: 110% | ILS at 2.5 mg/kg [15]: 80% | ILS at 20 mg/kg [6]: 50% | ILS at 40 mg/kg [7]: 0% | ILS at 5 mg/kg [8]: 60% | ILS [16]: Toxic | MST [10]: 21 | MST [17]: 18 | MST [11]: 15 | MST [12]: 10 | MST [13]: 16 | MST [14]: 6

Cc1c2ccncc2c(C)c2c1[nH]c1ccccc12 [ELLIPTECINE]
Incorporation [18]: 78% | Incorporation [19]: 56% | Incorporation [2]: 8% | Incorporation [20]: 65% | Incorporation [21]: 47% | Incorporation [22]: 25% | ILS at 10 mg/kg [5]: 30% | ILS at 20 mg/kg [6]: 30% | ILS at 40 mg/kg [7]: 60% | ILS at 5 mg/kg [8]: 20% | MST [10]: 13 | MST [11]: 13 | MST [12]: 16 | MST [13]: 12
